Results: US4058659A, “6,8-Disubstituted purine derivatives of 9-β-D-ribofuranosyl 3',5'-cyclic phosphate” (ICN Pharmaceuticals, Inc., priority 1975, dated 1977)
Structures can show the parent of a compound that is named as a salt. Each block holds one compound with its values, some of them ahead of it.

Assays:
phosphodiesterase = experiment: Phosphodiesterase inhibition; assay type: biochemical
[1] = system: isolated cat papillary muscle; experiment: Positive inotropic effect: % change in contractile force in isolated cat papillary muscle; conditions: for activation at 1 µg/mL: 1.0 μg/ml; for activation at 3.1 µg/mL: 3.1 μg/ml; for activation at 10 µg/mL: 10.0 μg/ml; for activation at 31 µg/mL: 31.0 μg/ml; for activation at 100 µg/mL: 100 μg/ml; for activation at 310 µg/mL: 310 μg/ml; for positive inotropic effect: statement in words, isolated cat papillary muscle
protein kinase = experiment: Protein kinase activation relative to cyclic AMP; assay type: biochemical; conditions: compared with cyclic AMP
[2] = Felis catus, read-out: % change in Contractile Force (CF)

inhibition of phosphodiesterase (phosphodiesterase): inhibit phosphodiesterase markedly
Compound: CC(=O)O[C@@H]1[C@@H]2OP(=O)(O)OC[C@H]2O[C@H]1n1c(SCc2ccccc2)nc2c(Cl)ncnc21 [Compound 13, 2'-o-acetyl-8-(benzylthio)-6-chloro-9-β-D-ribofuranosylpurine 3',5'-Cyclic Phosphate Sodium Salt]

inhibition of phosphodiesterase (phosphodiesterase): inhibit phosphodiesterase markedly
Compound: CCN(CC)c1ncnc2c1nc(SCc1ccccc1)n2[C@@H]1O[C@@H]2COP(=O)(O)O[C@H]2[C@H]1O [Compound 15, 8-(Benzylthio)-6-(diethylamino)-9-β-D-ribofuranosylpurine 3',5'-CyclicPhosphate]

inhibition of phosphodiesterase (phosphodiesterase): inhibit phosphodiesterase markedly
Compound: CCNc1ncnc2c1nc(SCc1ccccc1)n2[C@@H]1O[C@@H]2COP(=O)(O)O[C@H]2[C@H]1O [Compound 19, 8-(Benzylthio)-6-(ethylamino)-9-β-D-ribofuranosylpurine 3',5'-Cyclic Phosphate]
activation at 1 µg/mL [1, 2]: 9%
activation at 3.1 µg/mL [1, 2]: 11%
activation at 10 µg/mL [1, 2]: 17%
activation at 31 µg/mL [1, 2]: 28%
activation at 100 µg/mL [1, 2]: 45%
activation at 310 µg/mL [1, 2]: 88%
positive inotropic effect [1]: exhibit positive inotropic effect

inhibition of phosphodiesterase (phosphodiesterase): inhibit phosphodiesterase markedly
Compound: O=P1(O)OC[C@H]2O[C@@H](n3c(SCc4ccccc4)nc4c(NCc5ccccc5)ncnc43)[C@H](O)[C@@H]2O1 [Compound 44, 6-(Benzylamino)-8-(benzylthio)-9-β-D-ribofuranosylpurine 3',5'-Cyclic Phosphate]

inhibition of phosphodiesterase (phosphodiesterase): inhibit phosphodiesterase markedly
Compound: O=P1(O)OC[C@H]2O[C@@H](n3c(Br)nc4c(NCc5ccccc5)ncnc43)[C@H](O)[C@@H]2O1 [Compound 42, 6-(Benzylamino)-8-bromo-9-β-D-ribofuranosylpurine 3',5'-Cyclic Phosphate]

inhibition of phosphodiesterase (phosphodiesterase): inhibit phosphodiesterase markedly
Compound: CSc1nc2c(NCc3ccccc3)ncnc2n1[C@@H]1O[C@@H]2COP(=O)(O)O[C@H]2[C@H]1O [Compound 43, 6-(Benzylamino)-8-(methylthio)-9-β-D-ribofuranosylpurine 3',5'-Cyclic Phosphate]

inhibition of phosphodiesterase (phosphodiesterase): inhibit phosphodiesterase markedly
Compound: O=P1(O)OC[C@H]2O[C@@H](n3c(SCc4ccccc4)nc4c(N5CCCC5)ncnc43)[C@H](O)[C@@H]2O1 [Compound 18, 8-(Benzylthio)-6-pyrrolidino-9-β-D-ribofuranosylpurine 3',5'-Cyclic Phosphate]

inhibition of phosphodiesterase (phosphodiesterase): inhibit phosphodiesterase markedly
Compound: CCCCNc1ncnc2c1nc(SCc1ccccc1)n2[C@@H]1O[C@@H]2COP(=O)(O)O[C@H]2[C@H]1O [Compound 17, 8-(Benzylthio)-6-(n-butylamino)-9-β-D-ribofuranosylpurine 3',5'-CyclicPhosphate]
activation at 1 µg/mL [1, 2]: 7.5%
activation at 3.1 µg/mL [1, 2]: 10%
activation at 10 µg/mL [1, 2]: 19.3%
activation at 31 µg/mL [1, 2]: 24%
activation at 100 µg/mL [1, 2]: 30%
activation at 310 µg/mL [1, 2]: 39%
positive inotropic effect [1]: exhibit positive inotropic effect

Continued, compound first:

Compound: CCN(CC)c1ncnc2c1nc(Cl)n2[C@@H]1O[C@@H]2COP(=O)(O)O[C@H]2[C@H]1O [Compound 9, 8-Chloro-6-(diethylamino)-9-β-D-ribofuranosylpurine 3',5'-Cyclic Phosphate]
protein kinase activation (protein kinase): superior to cyclic AMP
inhibition of phosphodiesterase (phosphodiesterase): inhibit phosphodiesterase markedly

Compound: CCN(CC)c1nc2c(Cl)ncnc2n1[C@@H]1O[C@@H]2COP(=O)(O)O[C@H]2[C@H]1O [Compound 10, 6-Chloro-8-(diethylamino)-9-β-D-ribofuranosylpurine 3',5'-Cyclic Phosphate]
inhibition of phosphodiesterase (phosphodiesterase): inhibit phosphodiesterase markedly

Compound: CN(C)c1nc(N)nc2c1nc(Cl)n2[C@@H]1O[C@@H]2COP(=O)(O)O[C@H]2[C@H]1O [Compound 56, 2-Amino-8-chloro-6-dimethylamino-9-β-D-ribofuranosylpurine 3',5'-Cyclic Phosphate]
inhibition of phosphodiesterase (phosphodiesterase): inhibit phosphodiesterase markedly

Compound: O=P1(O)OC[C@H]2O[C@@H](n3c(Sc4ccc(Cl)cc4)nc4c(N5CCCCC5)ncnc43)[C@H](O)[C@@H]2O1 [Compound 34, 8-(p-Chlorophenylthio)-6-piperidino-9-β-D-ribofuranosylpurine 3',5'-Cyclic Phosphate]
inhibition of phosphodiesterase (phosphodiesterase): inhibit phosphodiesterase markedly

Compound: CCCNc1ncnc2c1nc(SCc1ccccc1)n2[C@@H]1O[C@@H]2COP(=O)(O)O[C@H]2[C@H]1O [Compound 20, 8-(Benzylthio)-6-n-propylamino-9-β-D-ribofuranosylpurine 3',5'-Cyclic Phosphate]
activation at 310 µg/mL [1, 2]: 30%
activation at 500 µg/mL ([1]; Felis catus, 500 μg/ml, read-out: % change in Contractile Force (CF)): 50%
positive inotropic effect [1]: exhibit positive inotropic effect

Compound: O=P1(O)OC[C@H]2O[C@@H](n3c(SCc4ccccc4)nc4c(SCc5ccccc5)ncnc43)[C@H](O)[C@@H]2O1 [Compound 14, 6,8-Bis-(benzylthio)-9-D-ribofuranosylpurine 3',5'-Cyclic Phosphate Sodium Salt]
inhibition of phosphodiesterase (phosphodiesterase): inhibit phosphodiesterase markedly

Compound: CCN(CC)c1ncnc2c1nc(Sc1ccc(Cl)cc1)n2[C@@H]1O[C@@H]2COP(=O)(O)O[C@H]2[C@H]1O [Compound 35, 8-(p-Chlorophenylthio)-6-(diethylamino)-9-β-D-ribofuranosylpurine 3',5'-Cyclic Phosphate]
inhibition of phosphodiesterase (phosphodiesterase): inhibit phosphodiesterase markedly

Compound: O=P1(O)OC[C@H]2O[C@@H](n3c(Sc4ccc(Cl)cc4)nc4c(Nc5ccccc5)ncnc43)[C@H](O)[C@@H]2O1 [Compound 37, 6-Anilino-8-(p-chlorophenylthio)-9-β-D-ribofuranosylpurine 3',5'-Cylic Phosphate]
activation at 1 µg/mL [1, 2]: 2%
activation at 3.1 µg/mL [1, 2]: 10.3%
activation at 10 µg/mL [1, 2]: 31.3%
activation at 31 µg/mL [1, 2]: 50.2%
activation at 100 µg/mL [1, 2]: 74.5%
activation at 310 µg/mL [1, 2]: 82.3%
positive inotropic effect [1]: exhibit positive inotropic effect

Compound: CCCCNc1ncnc2c1nc(Sc1ccc(Cl)cc1)n2[C@@H]1O[C@@H]2COP(=O)(O)O[C@H]2[C@H]1O [Compound 36, 6-n-Butylamino-8-(p-chlorophenylthio)-9-β-D-ribofuranosylpurine 3',5'-Cyclic Phosphate]
activation at 1 µg/mL [1, 2]: 9.8%
activation at 3.1 µg/mL [1, 2]: 15%
activation at 10 µg/mL [1, 2]: 52.7%
activation at 31 µg/mL [1, 2]: 62.3%
activation at 100 µg/mL [1, 2]: 29.4%
activation at 310 µg/mL [1, 2]: 101%
positive inotropic effect [1]: exhibit positive inotropic effect

Compound: CCCCNc1ncnc2c1nc(SC)n2[C@@H]1O[C@@H]2COP(=O)(O)O[C@H]2[C@H]1O [Compound 30, 6-n-Butylamino-8-(methylthio)-9-β-D-ribofuranosylpurine 3',5'-Cyclic Phosphate]
protein kinase activation (protein kinase): superior to cyclic AMP

Compound: CN(C)c1ncnc2c1nc(SCc1ccccc1)n2[C@@H]1O[C@@H]2COP(=O)(O)O[C@H]2[C@H]1O [Compound 24, 8-(Benzylthio)-6-dimethylamino-9-β-D-ribofuranosylpurine 3',5'-Cyclic Phosphate]
activation at 1 µg/mL [1, 2]: 4%
activation at 3.1 µg/mL [1, 2]: 9%
activation at 10 µg/mL [1, 2]: 13%
activation at 31 µg/mL [1, 2]: 18%
activation at 100 µg/mL [1, 2]: 45%
activation at 310 µg/mL [1, 2]: 118%
positive inotropic effect [1]: exhibit positive inotropic effect

Compound: Nc1nc2c(S)ncnc2n1[C@@H]1O[C@@H]2COP(=O)(O)O[C@H]2[C@H]1O [Compound 6, 8-Amino-9-β-D-ribofuranosyl-6-thiopurine 3',5'-Cyclic Phosphate]
inhibition of phosphodiesterase (phosphodiesterase): inhibit phosphodiesterase markedly
